From PubChem BioAssay AID1963440 (Molecular Pharmacology Branch, DTP, NCI, 2024)

Tested on: NCI-H1417 complex spheroids, growth % test/control
Assay: Anticancer human tumor NCI-H1417 cell line growth inhibition [Asc];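 further: spheroids exposed to compounds for 7 days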;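 on viability, T/C: 100% = DMSO vehicle control wells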
Conditions: for IC50: curve of first compound; for viability, T/C: stronger effect = lower value
Method in brief: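 Tumor cells were grown as multicellular spheroids with stromal HUVEC and mesenchymal stem cells and treated singly or in combination. Concentrations fell in half-log steps from the clinical Cmax, or from 10 microM where none was known.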

## Cc1nc(N2CCC3(CC2)COC(C)C3N)c(CO)nc1Sc1ccnc(N)c1Cl (stereo not given) + CCN1C(C(=O)NC23CCC(C(=O)O)(CC2)CC3)C(c2cccc(Cl)c2F)C2(C(=O)Nc3cc(Cl)ccc32)C12CCCCC2
Second compound 0.03 µM
  IC50: > 3 µM
Second compound 0.0949 µM
  IC50: > 3 µM
Second compound 0.3 µM
  IC50: > 3 µM
Second compound 0.949 µM
  IC50: > 3 µM
Second compound 3 µM
  IC50: > 3 µM
Second compound 0.03 µM, first compound 0.00949 µM
  viability, T/C: 106%
Second compound 0.03 µM, first compound 0.03 µM
  viability, T/C: 104%
Second compound 0.03 µM, first compound 0.0949 µM
  viability, T/C: 92.1%
Second compound 0.03 µM, first compound 0.3 µM
  viability, T/C: 86.1%
Second compound 0.03 µM, first compound 0.949 µM
  viability, T/C: 90.4%
Second compound 0.03 µM, first compound 3 µM
  viability, T/C: 82.6%
Second compound 0.0949 µM, first compound 0.00949 µM
  viability, T/C: 92.8%
Second compound 0.0949 µM, first compound 0.03 µM
  viability, T/C: 89.5%
Second compound 0.0949 µM, first compound 0.0949 µM
  viability, T/C: 91.4%
Second compound 0.0949 µM, first compound 0.3 µM
  viability, T/C: 82.1%
Second compound 0.0949 µM, first compound 0.949 µM
  viability, T/C: 87.8%
Second compound 0.0949 µM, first compound 3 µM
  viability, T/C: 79.4%
Second compound 0.3 µM, first compound 0.00949 µM
  viability, T/C: 98.6%
Second compound 0.3 µM, first compound 0.03 µM
  viability, T/C: 104%
Second compound 0.3 µM, first compound 0.0949 µM
  viability, T/C: 106%
Second compound 0.3 µM, first compound 0.3 µM
  viability, T/C: 82.7%
Second compound 0.3 µM, first compound 0.949 µM
  viability, T/C: 92.9%
Second compound 0.3 µM, first compound 3 µM
  viability, T/C: 82.5%
Second compound 0.949 µM, first compound 0.00949 µM
  viability, T/C: 103%
Second compound 0.949 µM, first compound 0.03 µM
  viability, T/C: 93.9%
Second compound 0.949 µM, first compound 0.0949 µM
  viability, T/C: 97.4%
Second compound 0.949 µM, first compound 0.3 µM
  viability, T/C: 78.3%
Second compound 0.949 µM, first compound 0.949 µM
  viability, T/C: 73.3%
Second compound 0.949 µM, first compound 3 µM
  viability, T/C: 84.4%
Second compound 3 µM, first compound 0.00949 µM
  viability, T/C: 88.9%
Second compound 3 µM, first compound 0.03 µM
  viability, T/C: 95%
Second compound 3 µM, first compound 0.0949 µM
  viability, T/C: 96.5%
Second compound 3 µM, first compound 0.3 µM
  viability, T/C: 99.7%
Second compound 3 µM, first compound 0.949 µM
  viability, T/C: 79.9%
Second compound 3 µM, first compound 3 µM
  viability, T/C: 80.3%
